# Experimental data as given in patent publication US11661404B2, “Prodrug compounds activated by AKR1C3 and their use for treating hyperproliferative disorders” (priority 2018, dated 2023).
# Read-outs that look alike come from different tables or passages of the source.
# Tested on: HCT116 colon cancer cells engineered to over-express AKR1C3
# Assay: Anti-proliferative IC50 assay (SRB), HCT116 over-expressing AKR1C3
# Format: cell-based, human
# Conditions: for IC50 Ratio WT:AKR1C3: HCT116-WT vs HCT116-AKR1C3
# Text: The cellular cytotoxicity of compounds of the invention resulting from AKR1C3-dependent metabolism of the compounds can readily be observed in anti-proliferative IC50 testing in isogenic cell lines that have been engineered to over-express human AKR1C3, relative to their wild-type counterparts that have been selected for their comparatively low levels of endogenous AKR1C3 expression (by Western blot analysis). The direct role of AKR1C3 in metabolism and cytotoxicity of the compounds is further supported for selected examples by repeat anti-proliferative experiments in the presence of a potent and selective small molecule inhibitor of AKR1C3, SN34037 (Flanagan et al., Bioorganic & Medicinal Chemistry (2014), 22(3), 967-977).
# Four hundred cells were seeded in a volume of 100 μL in each well of a 96-well plate. The cells were left in a humidified incubator (37° C., 5% CO2) for 2 hours in order to enable attachment to the surface of the wells prior to compound addition. All compounds were prepared as stocks in DMSO and stored at −80° C. Frozen stocks of compounds were thawed immediately prior to addition to cells. Working solutions of each compound were made in α-MEM+5% FBS (v/v) at 3 times the required final concentration for the top well. The final concentration of DMSO in the α-MEM solution was ensured to not exceed 1% of the total volume. 50 μL of the working solution was added to the top wells (in duplicates) and gently mixed. The solubility of some compounds precluded the working solution in α-MEM to be 3 times the desired top well concentration. […] A 3-fold serial dilution was carried out along the plate starting from the top well. The first column of wells on the plate served as blanks (containing α-MEM+FBS) and the second column served as control wells (containing cells with no compound added). Following compound addition, the plates were incubated for 4 hours in a humidified incubator (37° C., 5% CO2).
# Following the 4 hour compound exposure, the 96-well plates were washed three times by aspirating media with an Immuno Washer (Nunc) and each well replaced with 150 μL of α-MEM+5% (v/v) FBS+1% (v/v) P/S. The plates were left in a humidified incubator (37° C., 5% CO2) for 5 days to enable cell growth. The cells in 96-well plates were fixed 5 days after compound exposure by adding 50 μL of a 40% (w/v) trichloroacetic acid (TCA) solution so as to obtain a final TCA concentration of 10% in each well. The plates were left in the refrigerator (4° C.) for 1 hour and subsequently rinsed 3 times in tap water. Any excess water was left to drain and the cells were stained with 50 μL of 0.4% (w/v) sulforhodamine B (SRB). The plates with the SRB stain were left in the dark for 30 minutes. Excess stain was removed from the wells by rinsing the plates 4 times in water containing 1% (v/v) acetic acid. The stain was solubilised by adding 100 μL of 10 mM unbuffered Tris (pH 10.5) to each well and the plates were left in a shaker in a dark environment at room temperature for at least 1 hour. The absorbance values of the wells were determined by an ELx 808 Absorbance Microplate Reader (Bio-Tek Instruments, Winooski, Vt., USA), with the wavelength of the measurement filter set at 490 nm and a reference filter set at 450 nm. The absorbance of the reference filter was subtracted from the measurement filter to obtain a final absorbance of λ490-450 nm. The absorbance data was analysed and IC50 values determined by the KC4 microplate data analysis software (KC4™ V3.4, Bio-Tek).
# Anti-proliferative IC50 assays were repeated as described above including the addition of 3 μM SN34037, a selective and potent small molecule inhibitor of AKR1C3.
# [1] = Homo sapiens, HCT-116, read-out: HCT116-AKR1C3 IC50
# [2] = read-out: HCT116-AKR1C3 + AKR1C3 Inhibitor IC50, with 3 μM SN34037
SMILES,IC50 Ratio WT:AKR1C3,IC50 [1],IC50 [2]
"O=[N+]([O-])c1ccc(N(CCBr)CCBr)c(S(=O)(=O)N2CCN(CC(O)CO)CC2)c1 (stereo not drawn) [Compound 566, 3-(4-((2-(bis(2-bromoethyl)amino)-5-nitrophenyl)sulfonyl)piperazin-1-yl)propane-1,2-diol]",3340,1 nM,1720 nM
"CN1CCN(S(=O)(=O)c2cc([N+](=O)[O-])ccc2N(CCBr)CCOS(C)(=O)=O)CC1 [Compound 602, 2-((2-bromoethyl)(2-((4-methylpiperazin-1-yl)sulfonyl)-4-nitrophenyl)amino)ethyl methanesulfonate]",4260,1 nM,1780 nM
"CS(=O)(=O)OCCN(CCBr)c1ccc([N+](=O)[O-])cc1S(=O)(=O)N1CCN(CC(O)CO)CC1 (stereo not drawn) [Compound 605, 2-((2-bromoethyl)(2-((4-(2,3-dihydroxypropyl)piperazin-1-yl)sulfonyl)-4-nitrophenyl)amino)ethyl methanesulfonate]",687,9 nM,3540 nM
"CN1CCN(S(=O)(=O)c2cc([N+](=O)[O-])ccc2N(CCOS(C)(=O)=O)CCOS(C)(=O)=O)CC1 [Compound 641, ((2-((4-methylpiperazin-1-yl)sulfonyl)-4-nitrophenyl)azanediyl)bis(ethane-2,1-diyl) dimethanesulfonate]",2955,2 nM,3110 nM
"CS(=O)(=O)OCCN(CCBr)c1c(C(=O)NCCO)cc([N+](=O)[O-])cc1[N+](=O)[O-] [PR-104A, 2-((2-bromoethyl)(2-((2-hydroxyethyl)-carbamoyl)-4,6-dinitrophenyl)amino)ethyl methanesulfonate, reference compound]",50,1120 nM,41800 nM
"CN1CCN(C(=O)c2cc([N+](=O)[O-])ccc2N(CCBr)CCBr)CC1 [SN34118, reference compound]",98,389 nM,23900 nM
